“And” between values parts separate entries of the source, which are not always exact repeats. Identical values can stand only once.
Experiments:
delF508-CFTR [1] = biological target: T1, delF508-CFTR (Homo sapiens, UniProt P13569, DEL508-508); assay: Patch-clamp recording of delF508-CFTR currents in excised inside-out patches of transfected CHO cells; assay type: cell-based
Description: Patch-clamp is considered the gold standard for assessing directly ion channel function in real time. By attaching a glass microelectrode on the surface of a cell, it is possible to record the currents generated by channels proteins that are present in this tiny “patch” of cell membranes. Since millions of ions pass through a single ion channel pore per second, the resulting microscopic currents from a single channel protein molecule can be detected with modem patch-clamp amplifiers. As ion channels (a conductor in electricity term) are arranged in parallel in the cell membrane, it is also possible to assay a group of ion channels by monitoring macroscopic currents representing the sum of currents from individual channels. Microscopic recordings allow artisans to examine exquisitely the effects of compounds on the Po and kinetic parameters of CFTR channels; whereas macroscopic recordings provide an assay not only to quantify the overall effects of compounds on N×Po×i, but also monitor the stability of the CFTR currents in real time.
Chinese hamster ovary (CHO) cells were grown at 37° C. in Dulbecco's modified Eagle's medium supplemented with 10% fetal bovine serum. Cells were subcultured into 35-mm tissue culture dishes 1 day before transfection. PolyFect transfection reagent (QIAGEN) was used to cotransfect CFTR cDNA and pEGFP-C3 (Takara Bio Inc.), which encodes green fluorescence proteins, into CHO cells. After transfection, cells were incubated at 27° C. for at least 2 days before electrophysiological experiments were performed.
Glass chips carrying the transfected cells were transferred to a chamber located on the stage of an inverted microscope (IX51; Olympus). Borosilicate capillary glasses were used to make patch pipettes using a two-stage micropipette puller (PP-81, Narishige, Japan). The pipettes were polished with a homemade microforge to a resistance of 2-4 MΩ in the bath solution. Once the seal resistance reached >40 GΩ, membrane patches were excised into an inside-out mode. Subsequently, the pipette was moved to the outlet of a three-barrel perfusion system and perfused with 25 IU PKA and 2 mM ATP until the CFTR current reached a steady state. A patch-clamp amplifier (EPC10, HEKA, Germany) was used to record electrophysiological data at room temperature. The data were filtered online at 100 Hz with an eight-pole Bessel filter (LPF-8; Warner Instruments) and digitized to a computer at a sampling rate of 500 Hz. […] Membrane potential was held at −30 or −50 mV for all recordings.
Disease-causing mutations (G551D and delF508) were made with PCR-based site-directed mutagenesis using the Pfu Ultra II (Agilent Technologies). […] The cDNA constructs of CFTR (G551D and delF508) were co-transfected with peGFP-C3 (Takara Bio Inc.) encoding the green fluorescent protein into CHO cells using PolyFect transfection reagent (QIAGEN). The transfected cells were transferred into 35 mm tissue culture dishes containing one layer of sterilized glass chips for cells to grow on. The transfected cells were incubated at 27° C. for 2-7 days before electrophysiological experiments were performed.
All patch-clamp experiments were carried out in the excised inside-out configuration. Micropipettes made of borosilicate capillary glass were pulled with a two-stage vertical puller (Narishige) and then fire-polished with a homemade microforge to reach a pipet resistance of 2-4 MΩ when the pipettes were filled with a standard inside-out pipet solution that contains: 140 mM N-Methyl-D-glucamine-Cl (NMDG-Cl), 2 mM MgCl2, 5 mM CaCl2) and 10 mM HEPES, adjusted to pH 7.4 with NMDG.

G551D-CFTR = biological target: T2, G551D-CFTR (Homo sapiens, UniProt P13569, G551D); details: cited from earlier work
T2 construct: The cDNA constructs of CFTR (G551D and delF508) were co-transfected with peGFP-C3; expressed in transfected cells; host or cells: CHO cells (ATCC), transient co-transfection with pEGFP-C3 (GFP as a separate marker, not fused)
T2 sequence (P13569 whole entry G551D, the tested form may be a part): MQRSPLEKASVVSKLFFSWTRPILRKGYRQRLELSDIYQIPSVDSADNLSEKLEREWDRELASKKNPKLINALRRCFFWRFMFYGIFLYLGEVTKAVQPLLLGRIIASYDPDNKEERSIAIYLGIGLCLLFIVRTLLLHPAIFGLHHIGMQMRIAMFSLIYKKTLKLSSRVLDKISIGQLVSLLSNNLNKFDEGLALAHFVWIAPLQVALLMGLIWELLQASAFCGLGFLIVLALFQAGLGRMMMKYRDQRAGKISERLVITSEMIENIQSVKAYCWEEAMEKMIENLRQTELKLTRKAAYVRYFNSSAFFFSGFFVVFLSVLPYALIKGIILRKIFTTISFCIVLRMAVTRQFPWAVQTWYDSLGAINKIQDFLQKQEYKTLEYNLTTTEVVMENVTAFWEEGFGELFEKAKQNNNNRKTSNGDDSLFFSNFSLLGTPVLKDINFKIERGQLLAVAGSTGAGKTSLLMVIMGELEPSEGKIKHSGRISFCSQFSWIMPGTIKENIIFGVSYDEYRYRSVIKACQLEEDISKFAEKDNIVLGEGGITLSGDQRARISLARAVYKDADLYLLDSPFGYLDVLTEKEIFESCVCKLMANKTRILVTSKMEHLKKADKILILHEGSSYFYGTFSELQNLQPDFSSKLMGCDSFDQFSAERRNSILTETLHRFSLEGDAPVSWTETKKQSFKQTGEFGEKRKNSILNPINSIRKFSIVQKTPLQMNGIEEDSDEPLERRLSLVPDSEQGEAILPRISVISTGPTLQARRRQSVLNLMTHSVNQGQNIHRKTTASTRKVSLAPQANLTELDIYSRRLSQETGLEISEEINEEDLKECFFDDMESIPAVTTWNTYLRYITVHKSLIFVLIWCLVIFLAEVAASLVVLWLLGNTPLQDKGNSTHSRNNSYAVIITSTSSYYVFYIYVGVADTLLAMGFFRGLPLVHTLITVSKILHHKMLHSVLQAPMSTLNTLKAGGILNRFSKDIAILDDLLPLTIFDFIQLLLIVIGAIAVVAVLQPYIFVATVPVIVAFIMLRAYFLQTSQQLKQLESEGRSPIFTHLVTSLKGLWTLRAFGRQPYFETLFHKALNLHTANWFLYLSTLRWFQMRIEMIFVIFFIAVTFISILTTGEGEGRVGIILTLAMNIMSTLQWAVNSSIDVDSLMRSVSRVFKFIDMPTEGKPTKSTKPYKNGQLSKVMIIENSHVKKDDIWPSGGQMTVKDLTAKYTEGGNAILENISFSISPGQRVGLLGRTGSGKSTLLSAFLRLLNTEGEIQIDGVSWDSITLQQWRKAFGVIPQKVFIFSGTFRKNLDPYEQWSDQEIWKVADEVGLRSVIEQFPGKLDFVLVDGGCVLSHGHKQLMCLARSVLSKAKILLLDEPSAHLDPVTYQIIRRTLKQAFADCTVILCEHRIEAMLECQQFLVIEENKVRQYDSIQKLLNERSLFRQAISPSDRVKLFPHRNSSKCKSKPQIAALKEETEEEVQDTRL

delF508-CFTR [2] = biological target: T1, delF508-CFTR; design: delF508 stably-transfected C127 cells were cultured in DMEM with 10% FBS in 6-well plates; expressed in transfected cells; host or cells: C127 cells stably expressing delF508-CFTR; details: Kopeikin et al., J. Cys. Fibro. 2014; cited from earlier work

T1 sequence (P13569 with tags, fused parts or gaps DEL508-508): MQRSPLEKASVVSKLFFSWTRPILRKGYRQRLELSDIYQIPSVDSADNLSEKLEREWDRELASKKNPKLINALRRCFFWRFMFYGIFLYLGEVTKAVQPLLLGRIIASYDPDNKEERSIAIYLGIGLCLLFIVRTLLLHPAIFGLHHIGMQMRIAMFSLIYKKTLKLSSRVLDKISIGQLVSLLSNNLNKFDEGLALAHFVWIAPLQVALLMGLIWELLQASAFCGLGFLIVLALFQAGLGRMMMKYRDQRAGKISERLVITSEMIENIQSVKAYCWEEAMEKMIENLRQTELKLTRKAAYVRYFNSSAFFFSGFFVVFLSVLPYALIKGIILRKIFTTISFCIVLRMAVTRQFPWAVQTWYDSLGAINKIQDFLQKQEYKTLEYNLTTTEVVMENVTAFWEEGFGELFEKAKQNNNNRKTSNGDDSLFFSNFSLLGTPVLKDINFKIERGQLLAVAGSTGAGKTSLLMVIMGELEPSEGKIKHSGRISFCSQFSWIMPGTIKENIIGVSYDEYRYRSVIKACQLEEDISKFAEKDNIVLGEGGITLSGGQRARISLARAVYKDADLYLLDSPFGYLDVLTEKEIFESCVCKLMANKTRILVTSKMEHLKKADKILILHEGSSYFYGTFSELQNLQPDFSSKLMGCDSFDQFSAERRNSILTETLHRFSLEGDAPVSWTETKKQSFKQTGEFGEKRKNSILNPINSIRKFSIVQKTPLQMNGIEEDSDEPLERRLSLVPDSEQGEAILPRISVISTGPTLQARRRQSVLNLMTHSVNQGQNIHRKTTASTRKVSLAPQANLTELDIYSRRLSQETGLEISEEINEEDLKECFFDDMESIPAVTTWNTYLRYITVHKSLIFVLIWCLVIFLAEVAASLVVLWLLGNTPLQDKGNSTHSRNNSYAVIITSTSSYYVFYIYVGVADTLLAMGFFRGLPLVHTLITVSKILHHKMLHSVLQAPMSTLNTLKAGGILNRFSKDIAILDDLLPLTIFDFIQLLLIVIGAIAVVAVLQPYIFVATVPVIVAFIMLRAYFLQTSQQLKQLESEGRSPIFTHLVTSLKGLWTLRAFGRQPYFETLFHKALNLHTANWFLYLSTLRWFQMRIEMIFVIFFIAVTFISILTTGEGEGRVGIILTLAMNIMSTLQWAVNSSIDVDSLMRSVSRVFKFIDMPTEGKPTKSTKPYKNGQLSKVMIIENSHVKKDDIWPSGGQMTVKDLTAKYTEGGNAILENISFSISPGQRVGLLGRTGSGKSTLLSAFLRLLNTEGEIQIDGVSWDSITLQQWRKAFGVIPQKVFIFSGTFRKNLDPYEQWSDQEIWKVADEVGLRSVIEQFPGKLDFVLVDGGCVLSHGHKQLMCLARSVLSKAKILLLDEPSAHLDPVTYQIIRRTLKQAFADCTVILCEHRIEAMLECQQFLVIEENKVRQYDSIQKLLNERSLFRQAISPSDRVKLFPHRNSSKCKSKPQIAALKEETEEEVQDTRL

Compound: CC(C)(C)c1cc(C(C)(C)C)c(NC(=O)c2c[nH]c3ccccc3c2=O)cc1O [VX-770, Ivacaftor, reference compound]
- fold increase of mean delF508-CFTR current (delF508-CFTR [1]; 200 nM VX-770 alone): ~10 folds
- rundown of delF508-CFTR current in the presence of the compound (delF508-CFTR [1]; real-time current trace, FIG. 10): immediately starts to decline
- increase of the Po of G551D-CFTR (G551D-CFTR; Jih et al., PNAS 2013): 8-10 folds
- function of G551D-CFTR relative to wild-type / normal (G551D-CFTR; with Ivacaftor, literature): < 10% and ~10%
- Po of delF508-CFTR in the presence of Ivacaftor (delF508-CFTR [2]): above 0.4
